Results taken from US9035051B1, “Ghrelin O-acyl transferase inhibitor” (Eli Lilly and Company, priority 2013, dated 2015).

Assays:
human GOAT = target: T1, human GOAT (Homo sapiens, UniProt Q96T53); test: In vitro cell free human GOAT enzymatic assay; type: biochemical; settings: GOAT-His/sf9 microsomal membrane enzyme preparation; ELISA of acyl-ghrelin; n=5
T1 construct: His; made in house; host or cells: Sf9 insect cells (baculovirus, pAN51 vector); used as microsomal membrane preparation
T1 sequence (Q96T53 1-435): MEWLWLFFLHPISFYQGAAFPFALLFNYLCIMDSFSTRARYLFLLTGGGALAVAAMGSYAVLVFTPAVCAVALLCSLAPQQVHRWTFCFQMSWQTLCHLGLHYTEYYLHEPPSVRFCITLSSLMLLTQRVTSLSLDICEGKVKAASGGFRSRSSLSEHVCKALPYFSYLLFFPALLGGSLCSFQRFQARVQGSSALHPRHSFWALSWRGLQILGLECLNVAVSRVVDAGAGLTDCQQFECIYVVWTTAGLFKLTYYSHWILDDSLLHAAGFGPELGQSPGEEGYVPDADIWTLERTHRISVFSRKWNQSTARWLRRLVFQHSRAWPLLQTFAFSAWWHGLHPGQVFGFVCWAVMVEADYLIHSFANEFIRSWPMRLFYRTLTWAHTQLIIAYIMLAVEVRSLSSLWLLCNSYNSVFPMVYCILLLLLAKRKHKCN
Procedure: Human GOAT gene (Accession number: NM_001100916) is subcloned to pAN51 baculoviral expression vector. Baculovirus stock is prepared following the Bac-to-Bac Protocol provided by the vendor, Invitrogen, California, USA. Five milliliters of human GOAT baculoviral stock are added to 500 mL Sf9 cells in HyQ SFX-Insect™ media (HyClone catalog number SH30278.02) at the density of 1×10^6 cells per milliliter in a 2 L Erlenmeyer flask. The flask with human GOAT gene infected Sf9 cells is put on a plate shaker at 120 rpm at 28° C. for 48 h. After 48 h incubation, cells are centrifuged at 1,000×g for 10 min at 4° C. The cell pellets are collected and stored at −80° C. in a freezer until ready for further processing.
One gram cell pellets are suspended in 9 mL chilled homogenization buffer (50 mM Tris-HCl, 250 mM sucrose, adjusted to pH 7.5, and sterile filtered through 0.2 μm Millipore filter). The cell suspension is transferred to a Dounce glass homogenizer. Cell pellets are homogenized with 40 strokes on ice. The homogenate is centrifuged at 3,000 rpm in a Beckman swing bucket rotor at 4° C. for 10 min to remove unbroken cells. […]
Prepare ELISA plates (STREPTAVIDIN SPECTRAPLATE™ 384, Perkin Elmer) by blocking with 2% Heat-Inactivated FBS in PBS (40 μL) (Invitrogen) blocking buffer for 3 h. […] Read plates at 450 nm using an Envision Multilabel plate reader. […]

GOAT enzyme = target: T2, GOAT enzyme (Mus musculus, UniProt P0C7A3); test: In vivo dose dependent 3 day BID study for GOAT inhibitor (plasma AG and UAG by ELISA); set-up: species or system male C57BL/6 mice; settings: 3 days; for AG (% of control) / AG/Total-ghrelin (% of vehicle control) / UAG (% of vehicle control) / increase of UAG: plasma; for increase of UAG / decrease of plasma AG: vs vehicle; for reduction in AG to total ghrelin ratio: vs vehicle-treated control animals
T2 construct: endogenous in cells; host or cells: male C57BL/6 mice (whole animal, oral dosing; plasma AG/UAG read-out)
T2 sequence (P0C7A3 1-435): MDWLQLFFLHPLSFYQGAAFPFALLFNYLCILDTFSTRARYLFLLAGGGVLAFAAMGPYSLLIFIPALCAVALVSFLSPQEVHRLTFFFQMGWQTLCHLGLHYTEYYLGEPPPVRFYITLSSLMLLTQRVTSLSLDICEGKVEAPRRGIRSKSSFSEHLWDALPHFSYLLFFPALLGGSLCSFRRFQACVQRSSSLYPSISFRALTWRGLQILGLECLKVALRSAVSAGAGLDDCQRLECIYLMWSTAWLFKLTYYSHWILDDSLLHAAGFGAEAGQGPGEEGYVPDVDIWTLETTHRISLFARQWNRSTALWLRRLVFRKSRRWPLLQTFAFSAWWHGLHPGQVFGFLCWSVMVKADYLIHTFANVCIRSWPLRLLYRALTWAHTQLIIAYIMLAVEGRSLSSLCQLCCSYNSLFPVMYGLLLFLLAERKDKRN
Procedure: Comparing the change in the ratio of AG to total ghrelin in the compound treated group and that of the vehicle treated group reflects the degree of GOAT enzyme inhibition in vivo, due to the dynamic processing of UAG to AG by the GOAT enzyme. In the in vivo pharmacodynamic studies herein, the levels of AG and UAG in plasma and stomach in the vehicle and compound treated groups are measured by ELISA specifically to these two analytes. The total ghrelin level of each sample is computed as the sum of AG and UAG by these ELISA measurements. The ratio of AG to total ghrelin is defined by the level of AG in each sample divided by the level of total ghrelin in the same sample. The levels of AG, UAG and ratio of AG to total ghrelin in the vehicle treated group is computed and set as 100%. The relative change of these parameters in the compound treated group is then computed to determine the effectiveness of the test compound.
Purchase male C57BL/6 mice from Harlan (Indianapolis, Ind.) at 9 weeks of age. House the mice individually in a temperature-controlled (24° C.) facility with a 12 h light/dark cycle (lights on 2200 h), and allow free access to a standard rodent chow (diet 2014, Harlan) and water. Typically, use the mice when they are 10-13 weeks of age at the time of the study. On day 0 of the experiment, randomize the mice into treatment groups (N=7/group) so each group has similar mean body weights. On day 1 and day 2, treat the animals with vehicle (1% hydroxyethylcellulose, 0.25% Tween 80, 0.05% antifoam) or test compound prepared in the vehicle as suspension at various dosages by oral gavage at 7 am and 7 pm. On day 3, fast the animals, move them into clean cages and dose with vehicle or the test compound again at 8 am by oral gavage. That same day at 1 pm, sacrifice the animals by decapitation to collect blood. For details of blood collection and plasma treatments see Blood collection and Extraction of Ghrelin from Plasma section below.
Collect approximately 600 μL blood into a pre-weighed EDTA tube containing 600 μL (defined as Vpreservative) freshly-prepared preservative (4 mM PEFABLOC® [4-(2-aminoethyl) benzenesulfonyl fluoride hydrochloride], 72 mM NaCl, 58 mM NaF, 0.032 N hydrochloric acid, pH 3.0) and mix immediately. Weigh the tube again and keep on ice. To accurately determine the exact blood volume of each sample using this blood collection procedure, the weight of the blood for each mouse is computed using the following equation: Weight of Blood=(Weight of the tube containing Blood+preservative)−(Weight of the tube containing preservative) Blood volume(Vblood)=(Weight of blood)/1.06
Within 15 minutes after the blood collection, samples are centrifuged at 5000 rpm at 4° C. for 8 min Remove plasma (650 μL) to a 5 mL glass tube containing 1 N hydrochloric acid (65 μL), mix and keep on ice.
AG and UAG are extracted from plasma using SEP-PAK®_C18 column to remove interference prior to performing the ELISA. The solid phase extraction of AG and UAG peptides by SEP-PAK®_C18 columns can be performed on a vacuum manifold (Waters Corp) or using a peristaltic pump. The sample SEP-PAK®_column extraction procedure is independently applied to the plasma sample obtained from each individual mouse. The general extraction protocol is described as follows.
All solutions used for the entire protocol of the SEP-PAK® column extraction should be at ice cold condition. Wet SEP-PAK®_columns (WAT054960, Waters Corp, Milford Mass.) with 99.9% ACN/0.1% TFA (1 mL of solution of 100 mL ACN/0.1 mL TFA). […] Once liquid is removed from the column, stop the pressure. Equilibrate the columns with 3% ACN/0.1% TFA (1 mL of 97 mL water, 3 mL ACN, 0.1 mL TFA). […] Dilute approximately 650 μL acidified plasma (defined as Vplasma added to column) to 1.4 mL ice cold 0.1% TFA. Load all diluted acidified plasma from the previous step onto the columns. […] Wash with 3% ACN/0.1% TFA (0.9 mL of 97 mL water, 3 mL ACN, 0.1 mL TFA). […] Repeat the wash two more times. […]

## Cc1nc(N)c(CCC2CCN(C(=O)[C@H](C)NC(=O)C3CC3)CC2)c(Cl)n1 [Example 1, N-[(1S)-2-[4-[2-(4-Amino-6-chloro-2-methyl-pyrimidin-5-yl)ethyl]-1-piperidyl]-1-methyl-2-oxo-ethyl]cyclopropanecarboxamide]
Human GOAT
  IC50: ~192 nM
GOAT enzyme; 0.3 mg/kg oral gavage BID
  AG (% of control): 101 ± 025 % of control
  AG/Total-ghrelin (% of vehicle control): 61 ± 04 % of vehicle control
  UAG (% of vehicle control): 224 ± 035 % of vehicle control
  increase of UAG: 2.24 fold
  decrease of plasma AG: −1%
  reduction in AG to total ghrelin ratio: 39%
GOAT enzyme; 1 mg/kg oral gavage BID
  AG (% of control): 95 ± 018 % of control
  AG/Total-ghrelin (% of vehicle control): 46 ± 011 % of vehicle control
  UAG (% of vehicle control): 282 ± 045 % of vehicle control
  increase of UAG: 2.82 fold
  decrease of plasma AG: 5%
  reduction in AG to total ghrelin ratio: 54%
GOAT enzyme; 3 mg/kg oral gavage BID
  AG (% of control): 55 ± 06 % of control
  AG/Total-ghrelin (% of vehicle control): 29 ± 04 % of vehicle control
  UAG (% of vehicle control): 253 ± 031 % of vehicle control
  increase of UAG: 2.53 fold
  decrease of plasma AG: 45%
  reduction in AG to total ghrelin ratio: 71%
GOAT enzyme; 10 mg/kg oral gavage BID
  AG (% of control): 52 ± 010 % of control
  AG/Total-ghrelin (% of vehicle control): 23 ± 04 % of vehicle control
  UAG (% of vehicle control): 289 ± 044 % of vehicle control
  increase of UAG: 2.89 fold
  decrease of plasma AG: 48%
  reduction in AG to total ghrelin ratio: 77%
